Our source for the IC50 values is patent US9278981B2, “Compounds and compositions for inhibiting the activity of ABL1, ABL2 and BCR-ABL1” (Novartis AG, priority 2012, dated 2016).

In experiment [1] the target is T1, ABL1 (64-515) (Homo sapiens (Human), UniProt P00519). The experiment in a line: Caliper ABL1 (64-515) assay (microfluidic mobility shift). Format: biochemical.
Experimental: Expression and purification of human ABL was performed using standard expression purification procedures. […] The His-ABL was expressed in E. coli BL21 (DE3) and the ABL proteins were isolated by Ni-affinity on a Ni-NTA column (Qiagen). The His-tag was removed by PreScission protease (GE Healthcare) and the non-phosphoprylated ABL further purified on a Mono Q HR 10/10 (GE Healthcare, mono-phosphorylated ABL is about 10-20% of total ABL protein) and HiLoad 16/60 Superdex 200 size exclusion column (GE Healthcare).
All assays were performed in 384-well microtiter plates. Each assay plate contained 8-point serial dilutions for 40 test compounds, as well as four 8-point serial dilutions of staurosporine as a reference compound, plus 16 high and 16 low controls. Liquid handling and incubation steps were done on a Thermo CatX workstation equipped with Innovadyne Nanodrop Express. Between pipetting steps, tips were cleaned in wash cycles using wash buffer.
The assay plates were prepared by addition of 50 nL per well of compound solution in 90% DMSO. […] Plates with terminated kinase reactions were transferred to the Caliper LC3000 workstations for reading. Phosphorylated and unphosphorylated peptides were separated using the Caliper microfluidic mobility shift technology. Briefly, samples from terminated kinase reactions were applied to the chip. Analytes are transported through the chip by constant buffer flow and the migration of the substrate peptide is monitored by the fluorescence signal of its label. Phosphorylated peptide (product) and unphosphorylated peptide (substrate) are separated in an electric field by their charge/mass ratio. Kinase activities were calculated from the amounts of formed phospho-peptide. IC50 values were determined from percent inhibition values at different compound concentrations by non-linear regression analysis.
Test compounds were dissolved in DMSO (10 mM) and transferred into 1.4 mL flat bottom or V-shaped Matrix tubes carrying a unique 2D matrix. The stock solutions were stored at +2° C. if not used immediately. For the test procedure the vials were defrosted and identified by a scanner whereby a working sheet was generated that guided the subsequent working steps.
Compound dilutions were made in 96-well plates. This format enabled the assay of maximally 40 individual test compounds at 8 concentrations (single points) including 4 reference compounds. The dilution protocol included the production of “pre-dilution plates”, “master plates” and “assay plates”.
Polypropylene 96-well plates were used as pre-dilution plates. […] All dilution steps were done on a HamiltonSTAR robot.
These plates were used directly for the assay which was performed in a total volume of 9.05 μL.
Experiment [2] has as its target T1, ABL1 (64-515). Put plainly: Radio ABL1 (64-515) assay (radiometric filter-binding). Format: biochemical.

T1 sequence (P00519 64-515): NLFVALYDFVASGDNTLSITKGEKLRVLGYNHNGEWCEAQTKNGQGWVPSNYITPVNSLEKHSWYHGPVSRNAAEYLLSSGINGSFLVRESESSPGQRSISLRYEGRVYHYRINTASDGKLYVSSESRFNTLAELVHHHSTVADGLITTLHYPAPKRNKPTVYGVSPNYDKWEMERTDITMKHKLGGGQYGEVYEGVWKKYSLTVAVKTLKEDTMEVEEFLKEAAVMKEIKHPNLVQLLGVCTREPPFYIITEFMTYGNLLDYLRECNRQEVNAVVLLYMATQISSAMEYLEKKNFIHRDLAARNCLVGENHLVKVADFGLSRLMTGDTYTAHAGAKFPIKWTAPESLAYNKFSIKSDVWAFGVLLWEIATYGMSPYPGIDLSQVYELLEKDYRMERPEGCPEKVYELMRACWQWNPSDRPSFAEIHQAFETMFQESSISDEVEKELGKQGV

In the case of `O=C(Nc1ccc(OC(F)(F)F)c(F)c1)c1cnc(N2CC[C@H](CO)C2)c(-c2cncc(F)c2)c1` [Example 202, (S)-5′-Fluoro-N-(3-fluoro-4-(trifluoromethoxy)phenyl)-2-(3-(hydroxymethyl)pyrrolidin-1-yl)-[3,3′-bipyridine]-5-carboxamide], the IC50 at ABL1 (64-515) [1] was found to be 0.7 nM; on ABL1 (64-515) [2], 3.4 nM.

As for `N#Cc1cncc(-c2cc(C(=O)Nc3ccc(OC(F)(F)F)c(F)c3)cnc2N2CC[C@H](CO)C2)c1` [Example 203, (S)-5′-Cyano-N-(3-fluoro-4-(trifluoromethoxy)phenyl)-2-(3-(hydroxymethyl)pyrrolidin-1-yl)-[3,3′-bipyridine]-5-carboxamide], the IC50 on ABL1 (64-515) [1] was found to be 0.9 nM; on ABL1 (64-515) [2] it was 1 nM.

As to `O=C(Nc1ccc(OC(F)(F)F)c(Cl)c1)c1cnc(N2CC[C@@H](O)C2)c(-c2cncnc2)c1` [Example 204, (R)—N-(3-Chloro-4-(trifluoromethoxy)phenyl)-6-(3-hydroxypyrrolidin-1-yl)-5-(pyrimidin-5-yl)nicotinamide], the IC50 was 4.3 nM at ABL1 (64-515) [1] and less than 3 nM at ABL1 (64-515) [2].

`O=C(Nc1ccc(SC(F)(F)F)c(F)c1)c1cnc(N2CC[C@@H](O)C2)c(-c2cncnc2)c1` [Example 205, (R)—N-(3-Fluoro-4-((trifluoromethyl)thio)phenyl)-6-(3-hydroxypyrrolidin-1-yl)-5-(pyrimidin-5-yl)nicotinamide]: the IC50 was less than 0.13 nM at ABL1 (64-515) [1] and less than 3 nM on ABL1 (64-515) [2].

`O=C(Nc1ccc(SC(F)(F)F)c(F)c1)c1cnc(N2CC[C@@H](O)C2)c(-c2cncc(F)c2)c1` [Example 206, (R)-5′-Fluoro-N-(3-fluoro-4-((trifluoromethyl)thio)phenyl)-2-(3-hydroxypyrrolidin-1-yl)-[3,3′-bipyridine]-5-carboxamide]: the half-maximal inhibitory concentration (IC50) was determined as 0.5 nM at ABL1 (64-515) [1] and 6 nM on ABL1 (64-515) [2].

As for `N#Cc1cncc(-c2cc(C(=O)Nc3ccc(SC(F)(F)F)c(F)c3)cnc2N2CC[C@@H](O)C2)c1` [Example 207, (R)-5′-Cyano-N-(3-fluoro-4-((trifluoromethyl)thio)phenyl)-2-(3-hydroxypyrrolidin-1-yl)-[3,3′-bipyridine]-5-carboxamide], the IC50 at ABL1 (64-515) [1] amounted to 1.1 nM; on ABL1 (64-515) [2], 3 nM.

With `O=C(Nc1ccc(C(F)(F)C(F)(F)F)cc1)c1cnc(N2CC[C@@H](O)C2)c(-c2cncc(F)c2)c1` [Example 209, (R)-5′-Fluoro-2-(3-hydroxypyrrolidin-1-yl)-N-(4-(perfluoroethyl)phenyl)-[3,3′-bipyridine]-5-carboxamide], the IC50 was 0.5 nM at ABL1 (64-515) [1] and less than 3 nM on ABL1 (64-515) [2].

For the compound `N#Cc1cncc(-c2cc(C(=O)Nc3ccc(C(F)(F)C(F)(F)F)cc3)cnc2N2CC[C@@H](O)C2)c1` [Example 210, (R)-5′-Cyano-2-(3-hydroxypyrrolidin-1-yl)-N-(4-(perfluoroethyl)phenyl)-[3,3′-bipyridine]-5-carboxamide], the values for the IC50 on ABL1 (64-515) [1] and on ABL1 (64-515) [2] were 0.8 nM and 4 nM, respectively.

Regarding `O=C(Nc1ccc(SC(F)F)cc1)c1cnc(N2CC[C@@H](O)C2)c(-c2cncnc2)c1` [Example 211, (R)—N-(4-((Difluoromethyl)thio)phenyl)-6-(3-hydroxypyrrolidin-1-yl)-5-(pyrimidin-5-yl)nicotinamide], the figures for the IC50 on ABL1 (64-515) [1] and on ABL1 (64-515) [2] were 3.3 nM and 11 nM, respectively.

For `Cc1ccc(-c2cc(C(=O)Nc3ccc(OC(F)(F)C(F)F)cc3)cnc2N2CC[C@@H](O)C2)cn1` [Example 213, (R)-2-(3-Hydroxypyrrolidin-1-yl)-6′-methyl-N-(4-(1,1,22-tetrafluoroethoxy)phenyl)-[3,3′-bipyridine]-5-carboxamide], the IC50 on ABL1 (64-515) [1] was determined as 16 nM; at ABL1 (64-515) [2], 7 nM.

As to `O=C(Nc1ccc(S(=O)(=O)C(F)(F)F)cc1)c1cnc(N2CC[C@@H](O)C2)c(-c2cncnc2)c1` [Example 214, (R)-6-(3-Hydroxypyrrolidin-1-yl)-5-(pyrimidin-5-yl)-N-(4-((trifluoromethyl)sulfonyl)phenyl)nicotinamide], the IC50 on ABL1 (64-515) [1] was determined as 8.1 nM; on ABL1 (64-515) [2], 8 nM.

Take `O=C(Nc1ccc(SC(F)(F)Cl)cc1)c1cnc(N2CC[C@@H](O)C2)c(-c2cncnc2)c1` [Example 217, (R)—N-(4-((Chlorodifluoromethyl)thio)phenyl)-6-(3-hydroxypyrrolidin-1-yl)-5-(pyrimidin-5-yl)nicotinamide]: the IC50 on ABL1 (64-515) [1] came out at 0.4 nM; on ABL1 (64-515) [2], 2 nM.

As to `CC(C)(C)Oc1ccc(NC(=O)c2cnc(N3CC[C@@H](O)C3)c(-c3cncnc3)c2)cc1` [Example 219, (R)—N-(4-(tert-Butoxy)phenyl)-6-(3-hydroxypyrrolidin-1-yl)-5-(pyrimidin-5-yl)nicotinamide], the IC50 on ABL1 (64-515) [1] and at ABL1 (64-515) [2] was 16 nM each time.

Turning to `O=C(Nc1ccc(OC(F)(F)C(F)(F)F)cc1)c1cnc(N2CC[C@@H](O)C2)c(-c2cncnc2)c1` [Example 220, (R)-6-(3-Hydroxypyrrolidin-1-yl)-N-(4-(perfluoroethoxy)phenyl)-5-(pyrimidin-5-yl)nicotinamide], the values for the IC50 at ABL1 (64-515) [1] and at ABL1 (64-515) [2] were 2.3 nM and 6 nM, respectively.

Turning to `O=C(Nc1ccc(OC(F)(F)C(F)(F)F)cc1)c1cnc(N2CC[C@@H](O)C2)c(-c2cncc(F)c2)c1` [Example 221, (R)-5′-Fluoro-2-(3-hydroxypyrrolidin-1-yl)-N-(4-(perfluoroethoxy)phenyl)-[3,3′-bipyridine]-5-carboxamide], the IC50 on ABL1 (64-515) [1] stood at 1.3 nM; at ABL1 (64-515) [2] it was 10 nM.

As for `N[C@]1(C(F)(F)F)CCN(c2ncc(C(=O)Nc3ccc(OC(F)(F)F)cc3)cc2-c2cncnc2)C1` [Example 223, (R)-6-(3-Amino-3-(trifluoromethyl)pyrrolidin-1-yl)-5-(pyrimidin-5-yl)-N-(4-(trifluoromethoxy)phenyl)nicotinamide], the IC50 on ABL1 (64-515) [1] was 10 nM; at ABL1 (64-515) [2] it was 0.2 nM.

Regarding `O=C(Nc1ccc(OC(F)(F)F)cc1)c1cnc(N2CCC(F)(F)C2)c(-c2cncnc2)c1` [Example 224, 6-(3,3-Difluoropyrrolidin-1-yl)-5-(pyrimidin-5-yl)-N-(4-(trifluoromethoxy)phenyl)nicotinamide], the half-maximal inhibitory concentration (IC50) at ABL1 (64-515) [1] was 4.7 nM; at ABL1 (64-515) [2] it was 1.6 nM.

As for `CN(C)[C@H]1CN(c2ncc(C(=O)Nc3ccc(OC(F)(F)F)cc3)cc2-c2cncnc2)C[C@@H]1O` [Example 225, 6-((3S,4S)-3-(Dimethylamino)-4-hydroxypyrrolidin-1-yl)-5-(pyrimidin-5-yl)-N-(4-(trifluoromethoxy)phenyl)nicotinamide], the IC50 at ABL1 (64-515) [1] was found to be 8.5 nM; on ABL1 (64-515) [2] it was 2 nM.

`N[C@@H]1[C@H]2CN(c3ncc(C(=O)Nc4ccc(OC(F)(F)F)cc4)cc3-c3cncnc3)C[C@@H]12` [Example 227]: the values for the 50% inhibitory concentration (IC50) at ABL1 (64-515) [1] and on ABL1 (64-515) [2] were 1.6 nM and 0.9 nM, respectively.

Regarding `O=C(Nc1ccc(OC(F)(F)F)cc1)c1cnc(N2Cc3cn[nH]c3C2)c(-c2cncnc2)c1` [Example 228], the figures for the IC50 on ABL1 (64-515) [1] and on ABL1 (64-515) [2] were 1.1 nM and 1 nM, respectively.

With `O=C(Nc1ccc(OC(F)(F)F)cc1)c1cnc(N2CCNC3(CC3)C2)c(-c2cncnc2)c1` [Example 229], the IC50 at ABL1 (64-515) [1] came to 2.4 nM; at ABL1 (64-515) [2], 1 nM.

Turning to `CN(C)C1CN(c2ncc(C(=O)Nc3ccc(OC(F)(F)F)cc3)cc2-c2cncnc2)C1` [Example 232], the IC50 on ABL1 (64-515) [1] stood at 5.3 nM; at ABL1 (64-515) [2], 6 nM.

As for `O=C(Nc1ccc(OC(F)(F)F)cc1)c1cnc(N2CCCOCC2)c(-c2cncnc2)c1` [Example 233], the values for the IC50 at ABL1 (64-515) [1] and at ABL1 (64-515) [2] were 4 nM and 2.4 nM, respectively.

Broadly, the IC50 is the concentration that inhibits the measured activity by half.
